One assay relates to Mtb. Particulars: cited from earlier work; for inhibition of the growth of Mtb: in words.
The subject of the next assay is Mtb 56. The assay is described as follows: microbe, parasite or virus in culture. Particulars: Mycobacterium tuberculosis, 56, read-out: MIC (μg/mL) Mtb 56. It counts as cell-based, Mycobacterium tuberculosis.
The subject of another assay is Mtb 5. The assay is described as follows: microbe, parasite or virus in culture. The assay is classed as cell-based, Mycobacterium tuberculosis. Particulars: Mycobacterium tuberculosis, 5, read-out: MIC (μg/mL) Mtb 5.
The subject of another assay is Mtb 352. The assay is described as follows: microbe, parasite or virus in culture. The assay is classed as cell-based, Mycobacterium tuberculosis. Particulars: Mycobacterium tuberculosis, 352, read-out: MIC (μg/mL) Mtb 352.
For a further assay, the system named is Mtb 365. The assay is described as follows: microbe, parasite or virus in culture. The assay is classed as cell-based, Mycobacterium tuberculosis. Particulars: Mycobacterium tuberculosis, 365, read-out: MIC (μg/mL) Mtb 365.
For assay [1], the system named is M. tuberculosis ATCC 35801 (strain Erdman). Put plainly: Microtiter broth dilution MIC, Mtb Erdman. Particulars: for MIC (μg/mL) Mtb: Erdmann strain (ATCC 35801), screening rounds 1 and 2; for MIC (μg/mL) Mtb Erdman: Table 1 panel.
The next assay has as its system Mtb C-31. Put plainly: microbe, parasite or virus in culture. The assay is classed as cell-based. Particulars: Mycobacterium tuberculosis, C31, read-out: MIC (μg/mL) Mtb C-31.
Assay [2] concerns the target T1, MtbDHFR (Mycobacterium tuberculosis, UniProt P9WNX1). Particulars: in words; cited from earlier work.
Assay [3] concerns the target T1, MtbDHFR. Put plainly: biochemical. The assay is classed as biochemical.
A further assay has as its target T2, HuDHFR (Homo sapiens, UniProt P00374).
T2 construct: made in house
T2 sequence (P00374 1-187): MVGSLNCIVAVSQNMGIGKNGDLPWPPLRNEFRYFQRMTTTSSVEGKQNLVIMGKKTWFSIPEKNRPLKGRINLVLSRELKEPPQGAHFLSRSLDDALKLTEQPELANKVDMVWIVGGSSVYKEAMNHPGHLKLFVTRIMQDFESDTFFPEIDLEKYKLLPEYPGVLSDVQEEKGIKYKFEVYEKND
The assay is described as follows: Human DHFR enzyme inhibition (NADPH oxidation at 340 nm). The assay is classed as biochemical. Particulars: triplicate, mean ± SD.

A further assay relates to Mtb 276. The assay is described as follows: microbe, parasite or virus in culture. The assay is classed as cell-based, Mycobacterium tuberculosis. Particulars: Mycobacterium tuberculosis, 276, read-out: MIC (μg/mL) Mtb 276.
Assay [4] has as its system M. smegmatis (Overexpressing DHFR Strain 1). Put plainly: MIC against M. smegmatis overexpressing DHFR, strain 1. Particulars: Mycolicibacterium smegmatis, read-out: MIC (µg/mL) M. smegmatis (Overexpressing DHFR Strain 1).
In assay [5] the test system is M. smegmatis (parent strain). Put plainly: MIC against M. smegmatis parent strain. Particulars: Mycolicibacterium smegmatis, read-out: MIC (µg/mL) M. smegmatis (parent strain).
The test system of assay [6] is M. smegmatis (Overexpressing DHFR Strain 2). Put plainly: MIC against M. smegmatis overexpressing DHFR, strain 2. Particulars: Mycolicibacterium smegmatis, read-out: MIC (µg/mL) M. smegmatis (Overexpressing DHFR Strain 2).

In brackets after ≈: the same amount, converted by molar mass. Read-outs that look alike come from different tables or passages of the source.

T1 sequence (P9WNX1 whole entry): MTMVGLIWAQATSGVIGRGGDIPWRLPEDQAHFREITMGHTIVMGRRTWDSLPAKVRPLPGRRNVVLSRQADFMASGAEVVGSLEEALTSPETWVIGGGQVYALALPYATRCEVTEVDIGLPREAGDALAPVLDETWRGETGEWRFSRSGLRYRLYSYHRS

Turning to `Nc1nc(N)c2c(Cl)c(CNc3ccc(C(=O)O)cc3)ccc2n1` [DQn-1], the figures for the MIC with Mtb (Glaxo antifolate collection screen) and in the assay with Mtb (Glaxo antifolate library screen) were 0.03 µM and 0.03 µg/mL, respectively.

Consider `CCc1nc(N)nc(N)c1C#C[C@H](C)c1cc(OC)cc(-c2ccc(C(=O)O)cc2)c1` [UCP1172], for which the MIC was 0.06 µg/mL (≈ 0.144 µM) in the assay on Mtb 56; 0.25 µg/mL (≈ 0.6 µM) in the assay with Mtb 5; 0.06 µg/mL (≈ 0.144 µM) in the assay on Mtb 352; < 0.03 µg/mL with Mtb 365; 8 µg/mL (≈ 19.2 µM) with Mtb C-31. For the same molecule, the “MIC (μg/mL) Mtb” value in assay [1] is <0.03 µg/mL. For the same molecule, the “MIC (μg/mL) Mtb Erdman” value in [1] was <0.03 µg/mL.

As to `CCc1nc(N)nc(N)c1C#C[C@H](C)c1cc(-c2ccncc2)ccc1OC` [UCP1063], in assay [1], the “MIC (μg/mL) Mtb” value is 2 µg/mL (≈ 5.36 µM).

Turning to `CCc1nc(N)nc(N)c1-c1ccc(Cl)cc1` [pyrimethamine], the “inhibition of the MtbDHFR enzyme” value on MtbDHFR [2] is recorded as “potent inhibitors”. The “inhibition of the growth of Mtb” value in the assay with Mtb was “fail to inhibit the growth”.

Turning to `CCc1nc(N)nc(N)c1C#C[C@@H](C)c1cc(-c2ccc(C(=O)O)cc2)ccc1OC` [UCP1164], in [1], the “MIC (μg/mL) Mtb” value was found to be 0.5 µg/mL (≈ 1.2 µM).

On to `CN(Cc1cnc2nc(N)nc(N)c2n1)c1ccc(C(=O)N[C@@H](CCC(=O)O)C(=O)O)cc1` [Methotrexate], for which the “inhibition of the growth of Mtb” value in the assay with Mtb was “fail to inhibit the growth”.

The IC50 is the concentration needed to halve the response being measured. Turning to `CCc1nc(N)nc(N)c1C#CCc1cc(OC)c(OC)c(-c2ccncc2)c1` [UCP1039], the concentration for half-maximal inhibition (IC50) on MtbDHFR [3] (triplicate, mean ± SD, read-out: IC50 (nM) MtbDHFR) worked out at 297 ± 38 nM; at HuDHFR it was 495 ± 58 nM. Moreover, the “MIC (μg/mL) Mtb” value in [1] turned out to be 32 µg/mL (≈ 82.2 µM).

As for `CCc1nc(N)nc(N)c1C#C[C@H](C)c1cc(-c2ccc(C(=O)O)cc2)ccc1OC` [UCP1163], the “MIC (μg/mL) Mtb” value in assay [1] is 16 µg/mL (≈ 38.4 µM).

Take `CCc1nc(N)nc(N)c1C#CC(C)c1cc2c(c(-c3cncn3C)c1)OCO2` (stereo not shown) [UCP1102]: the MIC in the assay with Mtb 56 is 8 µg/mL (≈ 20.5 µM); in the assay with Mtb 276, 4 µg/mL (≈ 10.2 µM); in the assay with Mtb 5 it was 8 µg/mL (≈ 20.5 µM); in assay [4] it was 64 µg/mL (≈ 164 µM); in the assay with Mtb 352, 4 µg/mL (≈ 10.2 µM); in assay [5], 1 µg/mL (≈ 2.56 µM). For the same molecule, the figures for the MIC (in the assay with Mtb 365; in assay [6]; in the assay on Mtb C-31) were 8 µg/mL (≈ 20.5 µM), 32 µg/mL (≈ 82 µM) and 8 µg/mL (≈ 20.5 µM), respectively. Further, in assay [1], the “MIC (μg/mL) Mtb” value was found to be 2 µg/mL (≈ 5.12 µM). Further, the “MIC (μg/mL) Mtb Erdman” value in [1] was determined as 4 µg/mL (≈ 10.2 µM).

`COc1cc(Cc2cnc(N)nc2N)cc(OC)c1OC` [TMP, reference compound]: the “MIC (μg/mL) Mtb” value in [1] is 256 µg/mL (≈ 882 µM).

For `CCc1nc(N)nc(N)c1C#CCc1cc(-c2ccc(C(=O)O)cc2)ccc1OC` [UCP1106], the MIC was 16 µg/mL (≈ 39.8 µM) with Mtb 56; 16 µg/mL (≈ 39.8 µM) in the assay on Mtb 276; 8 µg/mL (≈ 19.9 µM) in the assay on Mtb 5; > 32 µg/mL in [4]; 16 µg/mL (≈ 39.8 µM) in the assay on Mtb 352; 8 µg/mL (≈ 19.9 µM) in [5]. Moreover, the results for the MIC (in the assay with Mtb 365; in assay [6]; with Mtb C-31) were 4 µg/mL (≈ 9.94 µM), > 32 µg/mL and > 32 µg/mL, respectively. The “MIC (μg/mL) Mtb” value in [1] worked out at 4 µg/mL (≈ 9.94 µM). In addition, in [1], the “MIC (μg/mL) Mtb Erdman” value is 16 µg/mL (≈ 39.8 µM).

`CCc1nc(N)nc(N)c1C#CCc1cc(OC)cc(-c2ccc(C(=O)O)cc2)c1` [UCP1175] came in with an IC50 on MtbDHFR [3] (IC50 (nM) MtbDHFR) of 460 ± 50 nM. The MIC in the assay on Mtb 56 came out at 0.5 µg/mL (≈ 1.24 µM); with Mtb 5 it was 2 µg/mL (≈ 4.97 µM); in the assay on Mtb 352, 0.5 µg/mL (≈ 1.24 µM); in the assay with Mtb 365 it was 0.125 µg/mL (≈ 0.311 µM); in the assay on Mtb C-31, 8 µg/mL (≈ 19.9 µM). Further, in assay [1], the “MIC (μg/mL) Mtb” value is 0.125 µg/mL (≈ 0.311 µM). Also, the “MIC (μg/mL) Mtb Erdman” value in assay [1] is 0.5 µg/mL (≈ 1.24 µM).

With `CCc1nc(N)nc(N)c1C#CC(C)c1cc(-c2cncn2C)ccc1OC` (stereo not shown) [UCP1084], the MIC in the assay on Mtb 56 came out at 4 µg/mL (≈ 10.6 µM); in the assay with Mtb 276, 4 µg/mL (≈ 10.6 µM); in the assay on Mtb 5, 4 µg/mL (≈ 10.6 µM); in [4], 64 µg/mL (≈ 170 µM); in the assay with Mtb 352, 4 µg/mL (≈ 10.6 µM); in assay [5] it was 1 µg/mL (≈ 2.66 µM). Also, the MIC in the assay on Mtb 365 stood at 4 µg/mL (≈ 10.6 µM); in assay [6] it was 16 µg/mL (≈ 42.5 µM); in the assay on Mtb C-31 it was 8 µg/mL (≈ 21.3 µM). Moreover, the “MIC (μg/mL) Mtb” value in [1] amounted to 2 µg/mL (≈ 5.31 µM). Also, the “MIC (μg/mL) Mtb Erdman” value in assay [1] was found to be 4 µg/mL (≈ 10.6 µM).

As to `COc1cc(NCc2ccc3nc(N)nc(N)c3c2C)cc(OC)c1OC` [Trimetrexate], the “inhibition of the MtbDHFR enzyme” value at MtbDHFR [2] is “potent inhibitors”. The “MIC (μg/mL) Mtb” value in assay [1] worked out at 4 µg/mL (≈ 10.8 µM). Besides, the “inhibition of the growth of Mtb” value in the assay on Mtb is “fail to inhibit the growth”.

Consider `NNC(=O)c1ccncc1` [INH, Isoniazid, reference compound], for which the MIC in the assay with Mtb 56 came out at 1 µg/mL (≈ 7.29 µM); in the assay with Mtb 5, 4 µg/mL (≈ 29.2 µM); in the assay with Mtb 352, 1 µg/mL (≈ 7.29 µM); with Mtb 365, 2 µg/mL (≈ 14.6 µM); with Mtb C-31, 4 µg/mL (≈ 29.2 µM). In assay [1], the “MIC (μg/mL) Mtb” value amounted to 0.03 µg/mL (≈ 0.219 µM). Besides, the “MIC (μg/mL) Mtb Erdman” value in assay [1] was determined as 0.125 µg/mL (≈ 0.911 µM).

As for `CCc1nc(N)nc(N)c1C#C[C@H](C)c1cc2c(c(-c3ccncc3)c1)OCO2` [UCP1098], on MtbDHFR [3], the midpoint of inhibition, the IC50, lay at 206 ± 6 nM. In addition, the MIC in the assay with Mtb 56 worked out at 8 µg/mL (≈ 20.6 µM); in the assay with Mtb 276, 8 µg/mL (≈ 20.6 µM); in the assay on Mtb 5, 8 µg/mL (≈ 20.6 µM); in assay [4], 64 µg/mL (≈ 165 µM); with Mtb 352, 8 µg/mL (≈ 20.6 µM); in [5] it was 0.5 µg/mL (≈ 1.29 µM). Besides, the results for the MIC (in the assay on Mtb 365; in [6]; with Mtb C-31) were 4 µg/mL (≈ 10.3 µM), 32 µg/mL (≈ 82.6 µM) and 16 µg/mL (≈ 41.3 µM), respectively. For the same molecule, the “MIC (μg/mL) Mtb” value in [1] was 4 µg/mL (≈ 10.3 µM). Also, in assay [1], the “MIC (μg/mL) Mtb Erdman” value is 8 µg/mL (≈ 20.6 µM).

Values taken from paper PMC5006990 (PLoS ONE, 2016).
